The values that follow come from patent US6800658B2, “Substituted diphenyl indanone, indane and indole compounds and analogues thereof useful for the treatment of prevention of diseases characterized by abnormal cell proliferation” (Children's Medical Center Corporation, priority 1997, dated 2004).

In general, inhibition refers to the change of the read-out against control, counted positive when it falls. Usually IC50 stands for the midpoint of a concentration-inhibition curve. One may read the melting point as the temperature, or range, at which the solid turns liquid.

Series [1] deals with MM-RU human melanoma cells. The settings on record: SCID mice inoculated with MM-RU human melanoma cells, daily administration; cited from earlier work.
The test system of series [2] is patients with sickle cell disease. The settings on record: oral therapy; cited from earlier work.
Another series relates to SAD mouse red cells. The following applies: oral administration; cited from earlier work.
Series [3] has as its system NIH 3T3 mouse fibroblast cells. Description: Mitogenic Assay (mitogen-induced cell proliferation). The following applies: for inhibition at 10 µM: NIH3T3, read-out: Mitogenic Assay Inhibition; for IC50: NIH3T3, read-out: Mitogenic Assay IC50.
For series [4], the target named is Gardos channel of erythrocytes (Homo sapiens, UniProt O15554). Description: Gardos Channel Assay. The settings on record: for inhibition at 10 µM: read-out: Gardos Channel Assay Inhibition.
Chain of Gardos channel of erythrocytes (O15554 whole entry): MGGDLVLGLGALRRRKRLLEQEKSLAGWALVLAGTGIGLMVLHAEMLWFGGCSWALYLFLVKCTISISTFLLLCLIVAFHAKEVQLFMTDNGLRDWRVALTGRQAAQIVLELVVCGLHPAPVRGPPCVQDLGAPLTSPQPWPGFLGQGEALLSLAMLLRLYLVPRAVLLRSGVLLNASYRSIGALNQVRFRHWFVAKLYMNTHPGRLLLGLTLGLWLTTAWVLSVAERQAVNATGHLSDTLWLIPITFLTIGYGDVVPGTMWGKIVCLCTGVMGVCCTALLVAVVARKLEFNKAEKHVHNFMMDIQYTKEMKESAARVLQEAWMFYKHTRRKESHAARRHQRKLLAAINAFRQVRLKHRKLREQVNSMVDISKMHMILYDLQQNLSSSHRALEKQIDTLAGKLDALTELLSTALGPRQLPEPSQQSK
A further series relates to HUVEC. Put plainly: SRB assay, normal HUVEC cells. The series is classed as cell-based. The following applies: 120 h, Normal human, 5% FCS, 5 Day Incubation. From the text:
(§1) The cells were passaged using Trypsin (Gibco).
(In general: The SRB assay estimates cell density from bound dye.)

For another series, the system named is HT29. Put plainly: SRB antiproliferative assay, HT29. The settings on record: Homo sapiens, HT-29, 120 h, read-out: SRB IC50 HT29.
In another series the test system is MDA-MB-231. Put plainly: SRB antiproliferative assay, MDA-MB-231. The series is classed as cell-based. The settings on record: Homo sapiens, 120 h; Breast; 5% FCS, 5 Day Incubation; read-out: SRB IC50 MDA-MB-23.
Excerpt: as §1

The next series has as its system HTB174. Put plainly: SRB antiproliferative assay, HTB174. The series is classed as cell-based. The settings on record: 120 h; Lung; 5% FCS, 5 Day Incubation.
Excerpt: as §1

The test system of the next series is HEPG2. Put plainly: SRB antiproliferative assay, HEPG2. The settings on record: Homo sapiens, HepG2, 120 h; Hepatocel; 5% FCS, 5 Day Incubation. The series is classed as cell-based.
Excerpt: as §1

A further series has as its system L929. Put plainly: SRB assay, normal L929 cells. The series is classed as cell-based. The following applies: L929, 120 h; Normal mouse; 5% FCS, 5 Day Incubation.
Excerpt: as §1

The next series deals with SK-OV-3. Put plainly: SRB antiproliferative assay, SK-OV-3. The series is classed as cell-based. The following applies: Homo sapiens, SK-OV-3, 120 h; Ovary; 5% FCS, 5 Day Incubation.
Excerpt: as §1

A further series has as its system GM. Put plainly: SRB assay, normal GM cells. The series is classed as cell-based. The following applies: 120 h; Normal human; 5% FCS, 5 Day Incubation.
Excerpt: as §1

For the next series, the system named is ACHN. Description: SRB antiproliferative assay, ACHN. The series is classed as cell-based. The following applies: Homo sapiens, 120 h, Renal, 5% FCS, 5 Day Incubation.
Excerpt: as §1

In another series the test system is HeLa. Description: SRB antiproliferative assay, HeLa. The series is classed as cell-based. The following applies: Homo sapiens, 120 h, Cervical, 5% FCS, 5 Day Incubation.
Excerpt: as §1

The test system of another series is CaSki. Description: SRB antiproliferative assay, CaSki. The series is classed as cell-based. The settings on record: Homo sapiens, Ca-Ski, 120 h; Cervical; 5% FCS, 5 Day Incubation.
Excerpt: as §1

For a further series, the system named is MMRU cells. Put plainly: SRB antiproliferative assay, MMRU. The following applies: Homo sapiens, 120 h, read-out: SRB IC50 MMRU.
A further series relates to 3T3. Description: SRB assay, normal 3T3 cells. The series is classed as cell-based. The following applies: NIH3T3, 120 h; Normal mouse; 5% FCS, 5 Day Incubation.
Excerpt: as §1

In another series the test system is MCF7. Description: SRB antiproliferative assay, MCF7. The settings on record: Homo sapiens, MCF7, 120 h, read-out: SRB IC50 MCF7.
The subject of the next series is DU-145. Description: SRB antiproliferative assay, DU-145. The series is classed as cell-based. The settings on record: Homo sapiens, DU-145, 120 h; Prostate; 5% FCS, 5 Day Incubation.
Excerpt: as §1

Another series relates to A549. Put plainly: SRB antiproliferative assay, A549. The following applies: Homo sapiens, A549, 120 h, read-out: SRB IC50 A549.
Another series concerns SK-MEL-28. Description: SRB antiproliferative assay, SK-MEL-28. The series is classed as cell-based. The settings on record: Homo sapiens, SK-MEL-28, 120 h; Melanoma; 5% FCS, 5 Day Incubation.
Excerpt: as §1

For another series, the system named is HCT-15. Description: SRB antiproliferative assay, HCT-15. The following applies: Homo sapiens, HCT-15, 120 h; Colon; 5% FCS, 5 Day Incubation. The series is classed as cell-based.
Excerpt: as §1

Method for A549: (§2) The antiproliferative assays described herein were performed using standard aseptic procedures and universal precautions for the use of tissues. Cells were propagated using RPMI 1640 media (Gibco) containing 2% N 5% fetal calf serum (Biowhittaker) at 37° C., 5% CO2 and 95% humidity. The cells were passaged using Trypsin (Gibco).
(§3) Following incubation, the cellular protein was determined with the ulforhodamine B (SRB) assay (Skehan P et al., 1990, J. Natl. Cancer Inst. 82:1107-1112).
Method for HT29: as §2, §3
Method for MCF7: as §2, §3
Method for MMRU cells: as §2, §3

Take `Clc1ccccc1C(c1ccccc1)(c1ccccc1)n1ccnc1` [Clotrimazole]: in series [1], the “number of lung metastases observed” value is “significant reduction”. Moreover, in [2], the Gardos channel result is “induces inhibition” and the erythrocyte dehydration entry is given as “reduces”. In the series with SAD mouse red cells, the cell density entry was “decreased”, the “mean cell hemoglobin concentration (MCHC)” value was “decreased”, the “red cell Gardos channel” value is recorded as “inhibition” and the “red cell K+ content” value is on record as “increased”.

`N#CC1OC12CC(c1ccccc1)(c1ccccc1)c1ccccc12` (stereo not drawn) [Compound 5, spiro[3,3-diphenyl-2,3-dihydro(1H)indene-1,3′-2′-cyanooxirane]]: the inhibition at 10 µM was determined as 29% in [3] and 67.3% in series [4].

As for `C=CCOC1=C(CC=C)C(c2ccccc2)(c2ccccc2)c2ccccc21` [Compound 6], in [3], the IC50 amounted to 3.4 µM and the inhibition at 10 µM was 90%. In addition, the inhibition at 10 µM in series [4] is 35%.

Turning to `O/N=C1\CC(c2ccc(Cl)cc2)(c2ccc(Cl)cc2)c2ccc(Cl)cc21` [Compound 11], the melting point worked out at 85 °C. In the series with HUVEC, this molecule came in with an IC50 of 6.4 µM. Besides, the IC50 in the series on HT29 is 6.8 µM. Moreover, in [3], the IC50 was 3.4 µM and the inhibition at 10 µM came out at 99%. In the series with MDA-MB-231, the IC50 is more than 10 µM. Further, in the series with HTB174, the midpoint of inhibition, the IC50, lay at 5.9 µM. Besides, the IC50 with HEPG2 was 5.8 µM. The same molecule gave an IC50 in the series on L929 of 8.6 µM. In addition, the IC50 in the series with SK-OV-3 was more than 10 µM. In addition, the IC50 with GM was more than 10 µM. The molecule also gave an IC50 in the series on ACHN of more than 10 µM. The molecule also had an IC50 in the series on HeLa of 5.1 µM. Further, inhibition in the series with CaSki was half-maximal at 7 µM (IC50). Besides, the IC50 in the series with MMRU cells was 6.2 µM. The inhibition at 10 µM in series [4] came to 50%. The same molecule yielded an IC50 in the series with 3T3 of more than 10 µM. Besides, the IC50 with MCF7 worked out at 4.4 µM. Moreover, the IC50 in the series on DU-145 is more than 10 µM. The IC50 in the series on A549 was 8.8 µM. The same molecule gave an IC50 in the series on SK-MEL-28 of 5.5 µM. Besides, in the series on HCT-15, half-maximal inhibition (IC50) required 6.6 µM.

Molecule `COC(=O)C1C(=O)c2ccccc2C1(c1ccccc1)c1ccccc1` (stereo not drawn) [Compound 15, 3,3-Diphenylindanone-2-methyl acetate] registered a melting point of 140 to 142 °C. In addition, in series [3], the IC50 stood at 7.5 µM and the inhibition at 10 µM came to 80%. Also, in series [4], the IC50 stood at 2.9 µM and the inhibition at 10 µM was 54.8%.

Molecule `COC(=O)c1ccc(COC2CC(c3ccccc3)(c3ccccc3)c3ccccc32)cc1` (stereo not drawn) [Compound 17, 3,3-Diphenyl-1-indanyl α-(4-methyltoluate) ether] had a melting point of 50 to 52 °C. Besides, the inhibition at 10 µM in series [3] was 76%. For the same molecule, in series [4], the inhibition at 10 µM was 0%.

With `Clc1ccccc1COC1CC(c2ccccc2)(c2ccccc2)c2ccccc21` (stereo not drawn) [Compound 18, 3,3-Diphenyl-1-indanyl α-(2-chlorotoluyl) ether], the melting point fell in the range of 27 to 29 °C. The inhibition at 10 µM in series [3] was determined as 73%. The inhibition at 10 µM in series [4] was 0%.

The molecule `OC1=C(CCC2OCCO2)C(c2ccccc2)(c2ccccc2)c2ccccc21` [Compound 20, 2-(Ethyl-2′-(1,3-dioxolane))-1-hydroxy-3,3-diphenylindene] yielded a melting point of 124 to 126 °C. Also, the inhibition at 10 µM in series [3] came to 81%. In addition, in series [4], the inhibition at 10 µM worked out at 0%.
